In ChEMBL document CHEMBL1201862, “PubChem BioAssay data set” (2004):
Calls of active or inactive are those of the source.

What was measured:
[1] = cells; format: functional, cell-based
[2] = cells; format: functional, cell-based; remark: listed apart in the source
[3] = HepG2 cell cytotoxicity, dose response, cytotoxicity control, ATP luminescence, cherry-pick, activator set 2 (AID 1053143); format: functional, cell-based
[4] = miR-122 activators in hepatoma reporter cells, dose response, cell-based, Huh7 psiCHECK-miR122, Renilla luciferase, cherry-picked (AID 651956); format: functional;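 also: huh7 hepatoma cells stably carrying a psiCHECK-2 miR-122 sensor plasmid; renilla luciferase signal reporting endogenous miR-122 activity after 48 h compound exposure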
[5] = HEK293T cytotoxicity, dose response, cytotoxicity control for miR-122 modulator project, cell-based, inhibitor set, cherry-pick, set 2 (AID 720697); format: functional
[6] = HEK293T cytotoxicity, dose response, cytotoxicity control for miR-122 modulator project, cell-based, activator set, cherry-pick (AID 720690); format: functional;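 also: HEK293T human cells scored for general mammalian cytotoxicity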
[7] = biological target: Disintegrin and metalloproteinase domain-containing protein 17 (Homo sapiens, UniProt P78536); experiment: exosite inhibitors of ADAM17, dose response, biochemical (AID 743260)
[8] = ADAM10 protease inhibitors, dose response, selectivity assay for ADAM17 exosite inhibitor project, biochemical, FRET peptide substrate, recombinant human ADAM10 (AID 743259);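 also: ADAM10 enzyme cleaving a FRET peptide substrate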
[9] = NIH-3T3 fibroblast cytotoxicity, dose response, cytotoxicity control, cell-based, fluorescence, Alamar Blue, secondary assay (AID 2327); format: functional;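 also: NIH-3T3 mouse fibroblasts cultured with fluconazole at 8 µg/mL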
[10] = HEp-2 cell cytotoxicity, dose response, cytotoxicity control for RSV inhibitor project, HTS (AID 2410); format: functional; settings: human respiratory syncytial virus
[11] = C. albicans growth with fluconazole, confirmation, fluorescence, retest (AID 2467); format: functional, cell-based
[12] = biological target: Genome polyprotein (dengue virus type 2, UniProt P29990); experiment: Dengue-2 NS5 methyltransferase inhibitors, primary screen, biochemical, confirmation dose response (AID 588689); format: functional
[13] = biological target: T1, Histone-lysine N-methyltransferase NSD2 (Homo sapiens, UniProt O96028); format: biochemical
T1 sequence (O96028 whole entry): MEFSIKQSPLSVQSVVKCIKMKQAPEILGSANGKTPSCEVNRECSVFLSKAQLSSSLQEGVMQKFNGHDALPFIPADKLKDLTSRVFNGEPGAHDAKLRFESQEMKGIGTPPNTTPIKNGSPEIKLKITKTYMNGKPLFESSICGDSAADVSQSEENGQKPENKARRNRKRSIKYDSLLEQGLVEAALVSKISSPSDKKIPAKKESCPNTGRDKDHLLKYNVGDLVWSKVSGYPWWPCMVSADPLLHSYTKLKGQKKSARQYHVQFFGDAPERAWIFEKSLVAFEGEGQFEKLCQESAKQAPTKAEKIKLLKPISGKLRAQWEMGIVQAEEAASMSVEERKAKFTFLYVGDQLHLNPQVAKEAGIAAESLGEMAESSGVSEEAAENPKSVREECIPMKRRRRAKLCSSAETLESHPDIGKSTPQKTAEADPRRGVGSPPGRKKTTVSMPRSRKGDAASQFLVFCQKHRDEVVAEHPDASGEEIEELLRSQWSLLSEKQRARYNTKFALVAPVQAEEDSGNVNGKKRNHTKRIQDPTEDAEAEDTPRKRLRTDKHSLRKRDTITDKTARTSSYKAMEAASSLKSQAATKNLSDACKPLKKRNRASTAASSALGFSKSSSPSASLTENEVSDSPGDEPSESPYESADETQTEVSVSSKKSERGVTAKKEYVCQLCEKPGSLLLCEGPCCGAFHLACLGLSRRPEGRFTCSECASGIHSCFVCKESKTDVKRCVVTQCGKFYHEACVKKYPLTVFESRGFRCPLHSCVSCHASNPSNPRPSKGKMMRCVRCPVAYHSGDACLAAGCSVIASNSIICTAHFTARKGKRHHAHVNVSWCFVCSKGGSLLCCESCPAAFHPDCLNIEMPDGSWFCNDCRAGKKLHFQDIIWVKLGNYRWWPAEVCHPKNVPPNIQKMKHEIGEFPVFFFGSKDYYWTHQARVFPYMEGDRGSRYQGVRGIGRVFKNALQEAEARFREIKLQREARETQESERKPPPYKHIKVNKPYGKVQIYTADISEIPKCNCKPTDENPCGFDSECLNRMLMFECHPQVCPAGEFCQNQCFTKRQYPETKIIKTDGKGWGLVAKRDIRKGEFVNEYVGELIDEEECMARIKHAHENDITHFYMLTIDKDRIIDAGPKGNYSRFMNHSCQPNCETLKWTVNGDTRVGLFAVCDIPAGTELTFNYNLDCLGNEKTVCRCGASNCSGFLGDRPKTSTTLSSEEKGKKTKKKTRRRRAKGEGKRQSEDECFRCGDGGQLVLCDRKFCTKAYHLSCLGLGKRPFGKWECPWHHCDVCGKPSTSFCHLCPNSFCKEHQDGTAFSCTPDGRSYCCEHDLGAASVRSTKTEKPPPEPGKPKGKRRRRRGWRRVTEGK

[14] = biological target: Nonstructural protein 1 (Influenza A virus, UniProt Q194T2); format: functional, Influenza A virus (A/California/07/2009(H1N1))
[15] = biological target: Heat shock protein HSP 90-alpha (Homo sapiens, UniProt P07900); format: functional, organism-based
[16] = biological target: T2, Replicative DNA helicase DnaB (Mycobacterium tuberculosis, UniProt P9WMR3); experiment: DnaB intein splicing inhibitors, dose response, biochemical, cell-free fluorescence (AID 449749); format: functional
T2 sequence (P9WMR3 whole entry): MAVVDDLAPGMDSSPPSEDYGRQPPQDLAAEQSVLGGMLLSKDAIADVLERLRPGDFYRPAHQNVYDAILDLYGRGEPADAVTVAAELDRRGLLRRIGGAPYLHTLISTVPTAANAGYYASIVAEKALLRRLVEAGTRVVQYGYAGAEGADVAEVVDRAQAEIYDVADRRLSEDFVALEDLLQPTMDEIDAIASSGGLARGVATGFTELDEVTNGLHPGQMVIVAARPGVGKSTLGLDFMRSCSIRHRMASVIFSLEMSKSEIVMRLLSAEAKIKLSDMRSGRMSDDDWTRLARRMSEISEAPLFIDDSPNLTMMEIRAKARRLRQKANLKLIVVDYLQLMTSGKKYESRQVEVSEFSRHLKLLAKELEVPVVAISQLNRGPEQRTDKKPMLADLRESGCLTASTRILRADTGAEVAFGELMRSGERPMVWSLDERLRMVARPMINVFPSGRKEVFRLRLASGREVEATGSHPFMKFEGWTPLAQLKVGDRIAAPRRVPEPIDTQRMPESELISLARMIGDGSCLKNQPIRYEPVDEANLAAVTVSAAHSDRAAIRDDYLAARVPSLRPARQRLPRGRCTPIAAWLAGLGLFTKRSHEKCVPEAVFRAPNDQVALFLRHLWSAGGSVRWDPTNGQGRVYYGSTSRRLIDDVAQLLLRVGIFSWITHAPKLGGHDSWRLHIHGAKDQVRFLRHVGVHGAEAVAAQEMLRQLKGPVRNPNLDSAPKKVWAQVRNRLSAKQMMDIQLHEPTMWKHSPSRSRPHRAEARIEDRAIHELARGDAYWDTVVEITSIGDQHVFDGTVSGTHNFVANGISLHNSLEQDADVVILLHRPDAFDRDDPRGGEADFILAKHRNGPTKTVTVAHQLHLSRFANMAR

[17] = biological target: T3, Protein RecA (Mycobacterium tuberculosis, UniProt P9WHJ3); experiment: Fluorescence Cell-Free Homogeneous Dose Retest to Identify Inhibitors of RecA-Intein Splicing Activity. [Related pubchem assays (depositor defined):AID2097, AID2223, AID489010, AID492950]; format: functional
T3 sequence (P9WHJ3 whole entry): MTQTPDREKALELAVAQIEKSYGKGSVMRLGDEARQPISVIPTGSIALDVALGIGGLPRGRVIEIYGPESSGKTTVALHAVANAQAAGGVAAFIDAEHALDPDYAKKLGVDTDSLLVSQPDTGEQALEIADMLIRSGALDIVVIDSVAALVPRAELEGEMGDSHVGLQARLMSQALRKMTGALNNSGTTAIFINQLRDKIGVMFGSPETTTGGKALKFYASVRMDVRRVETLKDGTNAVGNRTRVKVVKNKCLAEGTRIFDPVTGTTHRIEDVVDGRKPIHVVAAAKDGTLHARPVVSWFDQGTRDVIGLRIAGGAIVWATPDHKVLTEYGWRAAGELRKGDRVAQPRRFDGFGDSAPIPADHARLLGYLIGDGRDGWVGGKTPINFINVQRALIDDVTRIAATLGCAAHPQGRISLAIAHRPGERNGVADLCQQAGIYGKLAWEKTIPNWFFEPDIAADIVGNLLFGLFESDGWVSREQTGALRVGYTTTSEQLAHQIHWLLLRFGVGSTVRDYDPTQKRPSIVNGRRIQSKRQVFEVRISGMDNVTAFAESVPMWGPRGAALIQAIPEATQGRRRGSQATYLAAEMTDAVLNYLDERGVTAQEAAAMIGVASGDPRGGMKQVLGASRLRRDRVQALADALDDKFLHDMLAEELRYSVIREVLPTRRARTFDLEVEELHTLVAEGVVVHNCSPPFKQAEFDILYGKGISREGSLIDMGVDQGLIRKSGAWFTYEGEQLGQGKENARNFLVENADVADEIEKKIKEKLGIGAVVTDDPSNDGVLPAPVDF

[18] = biological target: T4, Caspase-6 (Homo sapiens, UniProt P55212); experiment: human caspase-6 inhibitors, dose response, biochemical, VEID-R110 fluorescence, cherry-pick (AID 720632)
T4 sequence (P55212 whole entry): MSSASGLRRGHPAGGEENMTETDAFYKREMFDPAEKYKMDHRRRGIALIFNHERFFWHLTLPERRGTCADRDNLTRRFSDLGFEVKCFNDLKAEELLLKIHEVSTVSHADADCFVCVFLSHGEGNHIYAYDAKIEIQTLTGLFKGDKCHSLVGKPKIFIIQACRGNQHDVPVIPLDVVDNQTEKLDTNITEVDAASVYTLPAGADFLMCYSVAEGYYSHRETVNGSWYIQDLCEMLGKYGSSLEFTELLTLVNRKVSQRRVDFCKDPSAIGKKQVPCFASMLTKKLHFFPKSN

[19] = biological target: T5, Tyrosyl-DNA phosphodiesterase 2 (Homo sapiens, UniProt O95551); experiment: human TDP2 enzyme inhibitors, dose response, biochemical, epi absorbance, IC50 (AID 743297)
T5 sequence (O95551 whole entry): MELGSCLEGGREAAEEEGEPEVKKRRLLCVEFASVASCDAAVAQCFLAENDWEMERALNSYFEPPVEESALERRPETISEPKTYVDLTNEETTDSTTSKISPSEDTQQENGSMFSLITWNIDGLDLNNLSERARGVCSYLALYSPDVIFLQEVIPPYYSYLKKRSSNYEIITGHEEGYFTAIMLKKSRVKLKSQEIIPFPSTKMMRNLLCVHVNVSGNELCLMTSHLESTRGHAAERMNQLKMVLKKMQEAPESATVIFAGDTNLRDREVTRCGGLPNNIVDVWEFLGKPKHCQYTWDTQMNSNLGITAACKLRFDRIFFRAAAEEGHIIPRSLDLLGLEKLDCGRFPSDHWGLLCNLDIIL

[20] = system: Streptococcus sp. 'group A'; experiment: growth inhibition of control SK(-) GAS strain, dose response, counter-screen for streptokinase expression inhibitor project, luminescence, kanamycin, BacTiterGlo, confirmation (AID 1900); format: functional, organism-based
[21] = inhibitors of intracellular T. cruzi replication, confirmation, NIH3T3 host cells, beta-gal luminescence (AID 2044); format: functional, cell-based;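 also: intracellular parasites grown in NIH/3T3 mouse fibroblasts as host cells; luminescent beta-galactosidase reporter signal from transgenic T. cruzi replicating inside host cells; inhibitors lower the luminescence signal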
[22] = cytotoxicity toward NIH3T3 fibroblasts, dose response, counter-screen, cell-based, ATP luminescence, mouse fibroblasts (AID 2010); format: functional;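 also: cells exposed to compound for about 90 hours before reading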
[23] = system: Streptococcus; experiment: Group A Streptococcus viability loss, dose response, counter-screen for streptokinase expression inhibitor project, luminescence, BacTiterGlo (AID 1915); format: functional, organism-based;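 also: potency for reduction of bacterial viability or growth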
[24] = THP-1 cell cytotoxicity, dose response, cytotoxicity control for non-replicating M. tuberculosis project (AID 489025); format: functional
[25] = Vero E6 cell cytotoxicity, dose response, cytotoxicity control for non-replicating M. tuberculosis project, secondary assay (AID 492998); format: functional, VeroE6; settings: Vero C1008
[26] = cells; format: functional
[27] = system: INS1; experiment: beta cell apoptosis inhibitors, cytokine rescue, dose response, luminescence, retest (AID 449756); format: functional, cell-based; settings: Rattus norvegicus;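 also: cell death triggered by IL-1 beta plus TNF-alpha plus IFN-gamma mixture; protective hits raise ATP signal compared with cytokine alone wells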

Sequence of Disintegrin and metalloproteinase domain-containing protein 17 (P78536 whole entry, the tested form may be a part): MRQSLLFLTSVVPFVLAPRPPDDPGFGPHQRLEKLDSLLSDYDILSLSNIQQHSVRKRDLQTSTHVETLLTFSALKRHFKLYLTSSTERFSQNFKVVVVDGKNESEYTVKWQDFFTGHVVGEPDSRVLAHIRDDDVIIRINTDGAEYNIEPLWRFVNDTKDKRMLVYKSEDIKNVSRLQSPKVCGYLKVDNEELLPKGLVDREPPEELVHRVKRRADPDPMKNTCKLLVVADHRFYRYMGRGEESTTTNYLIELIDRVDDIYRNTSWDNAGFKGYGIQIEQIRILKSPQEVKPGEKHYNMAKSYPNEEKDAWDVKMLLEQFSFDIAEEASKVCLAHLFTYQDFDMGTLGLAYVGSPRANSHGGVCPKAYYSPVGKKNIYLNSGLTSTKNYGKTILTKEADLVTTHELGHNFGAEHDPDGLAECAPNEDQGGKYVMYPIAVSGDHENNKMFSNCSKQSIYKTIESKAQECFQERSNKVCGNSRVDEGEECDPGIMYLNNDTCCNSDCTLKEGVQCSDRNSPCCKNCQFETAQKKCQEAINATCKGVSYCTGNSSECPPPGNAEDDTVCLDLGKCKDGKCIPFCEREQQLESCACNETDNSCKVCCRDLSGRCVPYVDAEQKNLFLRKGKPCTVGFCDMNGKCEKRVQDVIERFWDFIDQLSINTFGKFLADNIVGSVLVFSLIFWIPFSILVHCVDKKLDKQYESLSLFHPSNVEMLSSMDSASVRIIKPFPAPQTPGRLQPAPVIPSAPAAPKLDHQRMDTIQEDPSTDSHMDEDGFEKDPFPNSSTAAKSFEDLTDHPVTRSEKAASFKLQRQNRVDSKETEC
Sequence of Genome polyprotein (P29990 2492-3391 limits assumed): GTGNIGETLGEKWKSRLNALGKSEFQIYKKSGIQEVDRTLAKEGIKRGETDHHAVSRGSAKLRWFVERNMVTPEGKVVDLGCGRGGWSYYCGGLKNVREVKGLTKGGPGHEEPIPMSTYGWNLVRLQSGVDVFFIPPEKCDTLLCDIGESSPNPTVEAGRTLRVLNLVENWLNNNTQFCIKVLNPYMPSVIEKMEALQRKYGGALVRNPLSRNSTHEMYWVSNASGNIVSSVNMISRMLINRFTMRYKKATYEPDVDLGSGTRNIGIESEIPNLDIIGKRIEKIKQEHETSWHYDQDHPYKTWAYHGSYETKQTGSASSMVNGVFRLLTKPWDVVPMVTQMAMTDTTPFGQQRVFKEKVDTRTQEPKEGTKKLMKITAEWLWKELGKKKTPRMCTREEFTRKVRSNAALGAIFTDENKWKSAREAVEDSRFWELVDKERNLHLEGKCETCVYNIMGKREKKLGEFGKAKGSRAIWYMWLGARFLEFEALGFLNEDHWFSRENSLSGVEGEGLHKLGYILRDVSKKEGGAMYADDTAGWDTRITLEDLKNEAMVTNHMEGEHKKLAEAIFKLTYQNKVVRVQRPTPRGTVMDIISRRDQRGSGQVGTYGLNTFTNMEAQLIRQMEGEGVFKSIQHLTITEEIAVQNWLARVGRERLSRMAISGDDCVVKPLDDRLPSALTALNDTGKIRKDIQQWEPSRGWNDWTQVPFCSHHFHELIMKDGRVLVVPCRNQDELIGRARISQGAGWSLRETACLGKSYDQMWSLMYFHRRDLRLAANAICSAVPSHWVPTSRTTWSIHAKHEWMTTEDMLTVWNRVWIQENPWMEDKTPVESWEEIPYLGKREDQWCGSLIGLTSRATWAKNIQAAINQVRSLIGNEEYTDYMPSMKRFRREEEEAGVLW
Sequence of Nonstructural protein 1 (Q194T2 whole entry): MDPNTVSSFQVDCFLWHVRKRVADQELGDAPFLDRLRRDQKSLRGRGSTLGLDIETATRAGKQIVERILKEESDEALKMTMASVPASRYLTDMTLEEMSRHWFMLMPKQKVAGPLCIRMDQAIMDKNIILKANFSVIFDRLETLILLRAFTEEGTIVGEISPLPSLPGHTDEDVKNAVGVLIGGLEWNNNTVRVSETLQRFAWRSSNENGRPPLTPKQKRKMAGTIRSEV

## COc1ccc(CCNC(=O)c2cc(-c3ccco3)on2)cc1OC
[1]
  EC50: 12.5 µM (active)
[2]
  EC50: > 350 µM (not active)
[3]
  AC50: 26 µM (active)

## CN1C(=O)c2cc(NC(=O)c3ccc(C(F)(F)F)cc3)ccc2OC[C@@H]2O[C@@H](CC(=O)NC3Cc4ccccc4C3)CC[C@@H]21
[4]
  AC50: 4.71 µM (active)
[5]
  AC50: < 0.195 µM (active)
[6]
  AC50: 49.1 µM (active)

## Cc1ccc(C(C(=O)NC2CCCCC2)N(Cc2ccccc2)C(=O)Cc2c[nH]c3ccccc23)o1 (stereo unspecified)
[7]
  IC50: > 69.5 µM (inactive)
[8]
  IC50: 10.3 µM (inactive)

## C=CCOc1ccc(/C=C2\SC(=S)N(NS(=O)(=O)c3ccc(C)cc3)C2=O)cc1
[9]
  EC50: > 160 µM (inactive)
[10]
  CC50: 25 µM (active)
[11]
  EC50: 1.66 µM (active)
[12]
  IC50: 32.9 µM (active)
[13]
  AC50: 11.7 µM (active)

## CCN1/C(=C/c2ccc3cc(C)cc(C)c3[n+]2CC)Sc2cc(C)ccc21
[14]
  IC50: 17.6 µM (active)
[15]
  AC50: 2.86 µM (active)
[13]
  AC50: 7.93 µM (active)

## O=C(/C=C\c1ccco1)Oc1cccc2cccnc12
[3]
  AC50: 26 µM (active)

## O=C(CSc1nc2ccccc2c(=O)n1-c1ccccc1Cl)Nc1cccc(S(=O)(=O)N2CCOCC2)c1
[7]
  IC50: > 69.5 µM (inactive)
[8]
  IC50: > 69.5 µM (inactive)

## Cc1ccc(C(=O)Nc2nc3ccc(S(C)(=O)=O)cc3s2)o1
[3]
  AC50: 26 µM (active)

## Cc1nnc(N/N=C/c2ccccc2O)n1N
[16]
  AC50: 7.65 µM (active)
[17]
  EC50: 4.08 µM (active)
[18]
  AC50: 13.3 µM (active)
[19]
  IC50: > 128 µM (inactive)

## Oc1ccccc1/C=N/Nc1nc2ccccc2o1
[20]
  EC50: 1.9 µM (active)
[1]
  EC50: > 350 µM (not active)
[21]
  EC50: 2.92 µM (active)
[2]
  EC50: 4.02 µM (active)
[22]
  EC50: > 60 µM (not active)
[23]
  EC50: 4.17 µM (active)
[24]
  CC50: 1.68 µM (active)
[25]
  CC50: 2.59 µM (active)
[26]
  IC50: 33.3 µM (active)
[27]
  AC50: 1.59 µM (active)
[5]
  AC50: 2.53 µM (active)
[6]
  AC50: 5.79 µM (active)
